Results published in patent US8003695B2 (Chroma Therapeutics Ltd., priority 2006, dated 2011).

The compounds below were run against T1, IKBKB (IKKβ) (Homo sapiens, UniProt O14920) (assay: IKKβ Enzyme Assay (Z'-LYTE, Invitrogen)). Settings: ATP at or close to Km; read-out: Inhibitor activity versus IKKβ.
T1 construct: purchased Invitrogen (Paisley, UK)
T1 sequence (O14920 1-756): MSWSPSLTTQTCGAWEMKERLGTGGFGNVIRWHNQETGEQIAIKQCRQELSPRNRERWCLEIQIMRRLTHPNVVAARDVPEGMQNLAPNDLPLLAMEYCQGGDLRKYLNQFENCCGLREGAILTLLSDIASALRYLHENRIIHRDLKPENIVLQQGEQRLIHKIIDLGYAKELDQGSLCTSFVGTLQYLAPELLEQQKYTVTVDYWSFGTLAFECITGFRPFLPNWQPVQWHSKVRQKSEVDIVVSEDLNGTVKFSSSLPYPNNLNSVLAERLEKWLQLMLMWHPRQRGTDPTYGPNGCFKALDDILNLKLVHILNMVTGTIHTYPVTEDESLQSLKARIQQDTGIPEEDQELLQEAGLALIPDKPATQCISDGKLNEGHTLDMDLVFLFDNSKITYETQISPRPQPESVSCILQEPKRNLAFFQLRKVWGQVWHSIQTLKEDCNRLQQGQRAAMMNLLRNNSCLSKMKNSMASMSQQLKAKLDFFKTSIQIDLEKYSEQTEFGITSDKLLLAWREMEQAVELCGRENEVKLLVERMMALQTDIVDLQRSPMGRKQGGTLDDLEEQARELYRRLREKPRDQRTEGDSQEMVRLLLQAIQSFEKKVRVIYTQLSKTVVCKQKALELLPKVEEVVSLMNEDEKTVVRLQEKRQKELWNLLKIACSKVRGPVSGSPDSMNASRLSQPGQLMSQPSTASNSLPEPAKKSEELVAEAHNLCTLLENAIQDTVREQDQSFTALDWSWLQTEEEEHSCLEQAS
Assay type: biochemical
Method: The ability of compounds to inhibit IKKβ kinase activity was measured in an assay performed by Invitrogen (Paisley, UK). The Z′-LYTE™ biochemical assay employs a fluorescence-based, coupled-enzyme format and is based on the differential sensitivity of phosphorylated and non-phosphorylated peptides to proteolytic cleavage. The peptide substrate is labelled with two fluorophores—one at each end—that make up a FRET pair. In the primary reaction, the kinase transfers the gamma-phosphate of ATP to a single serine or threonine residue in a synthetic FRET-peptide. In the secondary reaction, a site-specific protease recognizes and cleaves non-phosphorylated FRET-peptides. Phosphorylation of FRET-peptides suppresses cleavage by the Development Reagent. Cleavage disrupts FRET between the donor (i.e., coumarin) and acceptor (i.e. fluorescein) fluorophores on the FRET-peptide, whereas uncleaved, phosphorylated FRET-peptides maintain FRET. A […] method, which calculates the ratio (the Emission Ratio) of donor emission to acceptor emission after excitation of the donor fluorophore at 400 nm, is used to quantitate reaction progress.
The final 10 μL Kinase Reaction consists of 0.9-8.0 ng IKBKB (IKKβ), 2 μM Ser/Thr 05 Peptide and ATP in 50 mM HEPES pH 7.5, 0.01% BRIJ-35, 10 mM MgCl2, 1 mM EGTA. The assay is performed at an ATP concentration at, or close to the Km. After the 60 minute Kinase Reaction incubation at room temperature, 5 μL of a 1:128 dilution of Development Reagent is added. The assay plate is incubated for a further 60 minutes at room temperature and read on a fluorescence plate reader.
Duplicate data points are generated from a ⅓ log dilution series of a stock solution of test compound in DMSO. Nine dilutions steps are made from a top concentration of 10 μM, and a ‘no compound’ blank is included. Data is collected and analysed using XLfit software from IDBS. The dose response curve is curve fitted to model number 205 (sigmoidal dose-response model). From the curve generated, the concentration giving 50% inhibition is determined and reported.

**Q.** How did the IC50 turn out when `Cc1cc(/C=C/CN[C@@H](CC(C)C)C(=O)O)ccc1-c1cc(C(N)=O)c(NC(N)=O)s1` [Example 73, N-[(2E)-3-{4-[4-carbamoyl-5-(carbamoylamino)thiophen-2-yl]-3-methylphenyl}prop-2-en-1-yl]-L-leucine] was run?
**A.** < 1000 nM

**Q.** How did the IC50 turn out when `CC(C)(C)OC[C@H](NC/C=C/c1ccc(-c2cc(C(N)=O)c(NC(N)=O)s2)cc1)C(=O)O` [Example 82, O-tert-butyl-N-[(2E)-3-{4-[4-carbamoyl-5-(carbamoylamino)thiophen-2-yl]phenyl}prop-2-en-1-yl]-L-serine] was run?
**A.** < 1000 nM

**Q.** How did the IC50 turn out when `NC(=O)Nc1sc(-c2ccc(/C=C/CN[C@H](C(=O)O)C3CCCCC3)cc2)cc1C(N)=O` [Example 83, (2S)-{[(2E)-3-{4-[4-carbamoyl-5-(carbamoylamino)thiophen-2-yl]phenyl}prop-2-en-1-yl]amino}(cyclohexyl)ethanoic acid] was run?
**A.** < 1000 nM

**Q.** With `NC(=O)Nc1sc(-c2ccc(/C=C/CN[C@H](C(=O)O)c3ccccc3)cc2)cc1C(N)=O` [Example 81, (2S)-{[(2E)-3-{4-[4-carbamoyl-5-(carbamoylamino)-2-thienyl]phenyl}prop-2-en-1-yl]amino}(phenyl)acetic acid] as the compound, how does the IC50 read?
**A.** < 1000 nM

**Q.** How did the IC50 turn out when `CC(C)C[C@H](NCCCOc1ccc(-c2cc(C(N)=O)c(NC(N)=O)s2)cc1)C(=O)O` [Example 65, N-(3-{4-[4-Carbamoyl-5-(carbamoylamino)-2-thienyl]phenoxy}propyl)-L-leucine] was run?
**A.** < 1000 nM

**Q.** With `NC(=O)Nc1sc(-c2ccc(CN[C@H](C(=O)O)c3ccc4ccccc4c3)cc2)cc1C(N)=O` [Example 54, (2S)-({-4-[4-Carbamoyl-5-(carbamoylamino)-2-thienyl]benzyl}amino)(2-naphthyl)acetic acid] as the compound, how does the IC50 read?
**A.** < 1000 nM

**Q.** How did the IC50 turn out when `NC(=O)Nc1sc(-c2ccc(CN[C@H](C(=O)O)c3ccccc3)cc2)cc1C(N)=O` [Example 50, (2S)-({4-[4-carbamoyl-5-(carbamoylamino)-2-thienyl]benzyl}amino)(phenyl)acetic acid] was run?
**A.** < 1000 nM

**Q.** `Cc1cc(-c2cc(C(N)=O)c(NC(N)=O)s2)ccc1/C=C/CN[C@@H](CC(C)C)C(=O)O` [Example 70, N-[(2E)-3-{4-[4-carbamoyl-5-(carbamoylamino)thiophen-2-yl]-2-methylphenyl}prop-2-en-1-yl]-L-leucine] was tested. Which IC50 did it give?
**A.** < 1000 nM

**Q.** Which IC50 does the source give for `Cc1cc(-c2cc(C(N)=O)c(NC(N)=O)s2)cc(C)c1/C=C/CN[C@@H](CC(C)C)C(=O)O` [Example 80] here?
**A.** < 1000 nM

**Q.** `CC(C)C[C@H](NC/C=C/c1ccc(-c2cc(C(N)=O)c(NC(N)=O)s2)cc1F)C(=O)O` [Example 71, N-[(2E)-3-{4-[4-carbamoyl-5-(carbamoylamino)thiophen-2-yl]-2-fluorophenyl}prop-2-en-1-yl]-L-leucine] was tested. Which IC50 did it give?
**A.** < 1000 nM

**Q.** Which IC50 does the source give for `NC(=O)Nc1sc(-c2ccc(CN[C@@H](Cc3ccccc3)C(=O)O)cc2)cc1C(N)=O` [Example 52, N-{-4-[4-Carbamoyl-5-(carbamoylamino)-2-thienyl]benzyl}-L-phenylalanine] here?
**A.** < 1000 nM

**Q.** Which IC50 does the source give for `CC(C)C[C@H](NC/C=C/c1cccc(-c2cc(C(N)=O)c(NC(N)=O)s2)c1)C(=O)O` [Example 93, N-[(2E)-3-{3-[4-carbamoyl-5-(carbamoylamino)-2-thienyl]phenyl}prop-2-en-1-yl]-L-leucine] here?
**A.** < 1000 nM

**Q.** `CC(C)C[C@H](NC/C=C/c1ccc(-c2cc(C(N)=O)c(NC(N)=O)s2)c(F)c1)C(=O)O` [Example 74, N-[(2E)-3-{4-[4-carbamoyl-5-(carbamoylamino)thiophen-2-yl]-3-fluorophenyl}prop-2-en-1-yl]-L-leucine] was tested. Which IC50 did it give?
**A.** < 1000 nM

**Q.** Which IC50 does the source give for `CC(C)C[C@H](NC/C=C/c1c(F)cc(-c2cc(C(N)=O)c(NC(N)=O)s2)cc1F)C(=O)O` [Example 78, N-[(2E)-3-{4-[4-carbamoyl-5-(carbamoylamino)thiophen-2-yl]-2,6-difluorophenyl}prop-2-en-1-yl]-L-leucine] here?
**A.** < 1000 nM

**Q.** With `CC(C)(C)OC[C@H](NCc1cccc(-c2cc(C(N)=O)c(NC(N)=O)s2)c1)C(=O)O` [Example 60, O-tert-butyl-N-{3-[4-carbamoyl-5-(carbamoylamino)thiophen-2-yl]benzyl}-L-serine] as the compound, how does the IC50 read?
**A.** < 1000 nM

**Q.** How did the IC50 turn out when `CC(C)C[C@H](NCCc1cc(-c2cc(C(N)=O)c(NC(N)=O)s2)ccc1F)C(=O)O` [Example 90, N-(2-{5-[4-carbamoyl-5-(carbamoylamino)thiophen-2-yl]-2-fluorophenyl}ethyl)-L-leucine] was run?
**A.** < 1000 nM

**Q.** `CC(C)C[C@H](NC/C=C/c1ccc(-c2cc(C(N)=O)c(NC(N)=O)s2)cc1C(F)(F)F)C(=O)O` [Example 76, N-[(2E)-3-{4-(4-carbamoyl-5-(carbamoylamino)thiophen-2-yl]-2-(trifluoromethyl)phenyl}prop-2-en-1-yl]-L-leucine] was tested. Which IC50 did it give?
**A.** < 1000 nM

**Q.** `C[C@@H](O)[C@H](NCc1cccc(-c2cc(C(N)=O)c(NC(N)=O)s2)c1)C(=O)O` [Example 61, N-{3-[4-carbamoyl-5-(carbamoylamino)thiophen-2-yl]benzyl}-L-threonine] was tested. Which IC50 did it give?
**A.** < 1000 nM

**Q.** Which IC50 does the source give for `NC(=O)Nc1sc(-c2cccc(CN[C@H](C(=O)O)C3CCCCC3)c2)cc1C(N)=O` [Example 59, (2S)-({3-[4-carbamoyl-5-(carbamoylamino)-2-thienyl]benzyl}amino)(cyclohexyl)acetic acid] here?
**A.** < 1000 nM

**Q.** How did the IC50 turn out when `CC(C)C[C@H](NCCc1ccc(-c2cc(C(N)=O)c(NC(N)=O)s2)c(Cl)c1)C(=O)O` [Example 64, N-(2-{-4-[4-Carbamoyl-5-(carbamoylamino)-2-thienyl]-3-chlorophenyl}ethyl)-L-leucine] was run?
**A.** < 1000 nM

**Q.** With `Cc1cc(-c2cc(C(N)=O)c(NC(N)=O)s2)ccc1CN[C@@H](CC(C)C)C(=O)O` [Example 56, N-{4-[4-carbamoyl-5-(carbamoylamino)-2-thienyl]-2-methylbenzyl}-L-leucine] as the compound, how does the IC50 read?
**A.** < 1000 nM

**Q.** How did the IC50 turn out when `NC(=O)Nc1sc(-c2cccc(CN[C@H](C(=O)O)c3ccccc3)c2)cc1C(N)=O` [Example 58, (2S)-({3-[4-carbamoyl-5-(carbamoylamino)-2-thienyl]benzyl}amino)(phenyl)acetic acid] was run?
**A.** < 1000 nM

**Q.** For `CC(C)C[C@H](NCc1cccc(-c2cc(C(N)=O)c(NC(N)=O)s2)c1)C(=O)O` [Example 57, N-{3-[4-Carbamoyl-5-(carbamoylamino)-2-thienyl]benzyl}-L-leucine], which IC50 is on record?
**A.** < 1000 nM

**Q.** `CC(C)C[C@H](NCc1ccc(-c2cc(C(N)=O)c(NC(N)=O)s2)cc1)C(=O)O` [Example 51, N-{4-[4-Carbamoyl-5-(carbamoylamino)-2-thienyl]benzyl}-L-leucine] was tested. Which IC50 did it give?
**A.** < 1000 nM

**Q.** With `CC(C)C[C@H](NCCc1ccc(-c2cc(C(N)=O)c(NC(N)=O)s2)cc1)C(=O)O` [Example 63] as the compound, how does the IC50 read?
**A.** < 1000 nM

**Q.** For `CC(C)C[C@H](NCCc1cccc(-c2cc(C(N)=O)c(NC(N)=O)s2)c1)C(=O)O` [Example 87, N-(2-{3-[4-carbamoyl-5-(carbamoylamino)-2-thienyl]phenyl}ethyl)-L-leucine], which IC50 is on record?
**A.** < 1000 nM

**Q.** Which IC50 does the source give for `CC(C)C[C@@H](NC/C=C/c1ccc(-c2cc(C(N)=O)c(NC(N)=O)s2)cc1)C(=O)O` [Example 84, N-[(2E)-3-{4-[4-carbamoyl-5-(carbamoylamino)-2-thienyl]phenyl}prop-2-en-1-yl]-D-leucine] here?
**A.** < 1000 nM

**Q.** For `CC(C)C[C@H](NCCCCCOc1ccc(-c2cc(C(N)=O)c(NC(N)=O)s2)c(Cl)c1)C(=O)O` [Example 68, N-(5-{4-[4-Carbamoyl-5-(carbamoylamino)-2-thienyl]-3-chlorophenoxy}pentyl)-L-leucine], which IC50 is on record?
**A.** < 1000 nM
